Test results as given in ChEMBL document CHEMBL1201862, “PubChem BioAssay data set” (2004).
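48-hour exposure; five concentrations; linearly interpolated endpoints. GI50 = concentration required for 50% inhibition of growth.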 The source made the active and inactive calls. Rule as the data show it: active = GI50 up to about 1.1 µM and inactive = higher.

Tests used:
Assay in all cases: NCI-60 cell line screen, 48 h
HT-29 = system: HT-29
UO-31 = system: UO-31
DU-145 = system: DU-145
Hs-578T = system: Hs-578T
EKVX = system: EKVX
T47D = system: T47D
RPMI-8226 = system: RPMI-8226
786-0 = system: 786-0
NCI-H522 = system: NCI-H522
HOP-62 = system: HOP-62
K562 = system: K562
UACC-257 = system: UACC-257
MOLT-4 = system: MOLT-4
NCI-H23 = system: NCI-H23
CCRF-CEM = system: CCRF-CEM
A498 = system: A498
HCT-116 = system: HCT-116

Structure (SMILES)	GI50 (HT-29)	GI50 (UO-31)	GI50 (DU-145)	GI50 (Hs-578T)	GI50 (EKVX)	GI50 (T47D)	GI50 (RPMI-8226)	GI50 (786-0)	GI50 (NCI-H522)	GI50 (HOP-62)	GI50 (K562)	GI50 (UACC-257)	GI50 (MOLT-4)	GI50 (NCI-H23)	GI50 (CCRF-CEM)	GI50 (A498)	GI50 (HCT-116)
CC(C)(C)OC(=O)NC(Cc1ccccc1)C(=O)OCN1C(=O)C2C3C=CC(C2C1=O)C1C2C(=O)N(COC(=O)C(Cc4ccccc4)NC(=O)OC(C)(C)C)C(=O)C2C31 (stereo not drawn)	12.9 µM (inactive)	19.5 µM (inactive)	41.6 µM (inactive)	18.7 µM (inactive)	23.6 µM (inactive)	36.3 µM (inactive)	18.8 µM (inactive)	28.2 µM (inactive)	23.7 µM (inactive)	30.4 µM (inactive)	23.1 µM (inactive)	> 56.4 µM (inactive)	10 µM (inactive)	38.8 µM (inactive)	2.67 µM (inactive)	25.9 µM (inactive)	19.2 µM (inactive)
O=C1c2ccccc2C(=O)c2sc(Nc3ccccc3C(F)(F)F)nc21		12.1 µM (inactive)	16.9 µM (inactive)	11.9 µM (inactive)	18.2 µM (inactive)	12 µM (inactive)	13 µM (inactive)	16.4 µM (inactive)	8.15 µM (inactive)	14 µM (inactive)	3.01 µM (inactive)	15.6 µM (inactive)	3.45 µM (inactive)	15.7 µM (inactive)	3.79 µM (inactive)	15.3 µM (inactive)	28.6 µM (inactive)
CCOC(=O)N1c2ccccc2N(C(=O)OCC)C1CC(=O)/C=C/c1ccccc1	2.94 µM (inactive)	3.82 µM (inactive)	2.69 µM (inactive)	1.87 µM (inactive)	2.79 µM (inactive)	5.16 µM (inactive)	3.19 µM (inactive)	3.3 µM (inactive)	1.78 µM (inactive)	3.99 µM (inactive)	3.72 µM (inactive)	6.49 µM (inactive)	2.4 µM (inactive)	2.88 µM (inactive)	1.86 µM (inactive)	3.37 µM (inactive)	3.3 µM (inactive)
Nc1nc(Cl)cc(NCC2(CO)CCC(Cc3ccccc3)C2)n1 (stereo not drawn)	19.1 µM (inactive)	38.3 µM (inactive)	27.8 µM (inactive)	25.4 µM (inactive)	8.71 µM (inactive)	6.5 µM (inactive)	12 µM (inactive)	27.7 µM (inactive)	10.1 µM (inactive)	32.7 µM (inactive)	1.21 µM (inactive)	2.78 µM (inactive)	3.74 µM (inactive)	2.87 µM (inactive)	6.68 µM (inactive)	12.6 µM (inactive)	15.5 µM (inactive)
CC1=NN(C(=O)CSc2nc3ccc(I)cc3c(=O)n2Cc2ccccc2)C(=O)C1	34.3 µM (inactive)		37.1 µM (inactive)	7.89 µM (inactive)	23.6 µM (inactive)	19.1 µM (inactive)	35 µM (inactive)	36.9 µM (inactive)	7.05 µM (inactive)	39.6 µM (inactive)	23.8 µM (inactive)	34 µM (inactive)	24.4 µM (inactive)	16.1 µM (inactive)	27.9 µM (inactive)	22.4 µM (inactive)	29.9 µM (inactive)
Cc1n[nH]c(=O)n1/N=C/c1cccnc1	> 100 µM (inactive)	> 100 µM (inactive)	> 100 µM (inactive)	> 100 µM (inactive)	> 100 µM (inactive)	> 100 µM (inactive)	> 100 µM (inactive)	> 100 µM (inactive)	> 100 µM (inactive)	> 100 µM (inactive)	> 100 µM (inactive)	> 100 µM (inactive)	> 100 µM (inactive)	> 100 µM (inactive)	> 100 µM (inactive)	> 100 µM (inactive)	> 100 µM (inactive)
CCCCC(=O)Oc1ccc2c(C)cc(=O)oc2c1	> 100 µM (inactive)	> 100 µM (inactive)	> 100 µM (inactive)	> 100 µM (inactive)	> 100 µM (inactive)	> 100 µM (inactive)	> 100 µM (inactive)	> 100 µM (inactive)	> 100 µM (inactive)	> 100 µM (inactive)	> 100 µM (inactive)	> 100 µM (inactive)	> 100 µM (inactive)	> 100 µM (inactive)	> 100 µM (inactive)	> 100 µM (inactive)	> 100 µM (inactive)
CN(C)CCNC1=Nc2ccccc2C(=O)N2CSCC12 (stereo not drawn)	> 100 µM (inactive)	> 100 µM (inactive)	> 100 µM (inactive)	> 100 µM (inactive)	> 100 µM (inactive)	> 100 µM (inactive)	> 100 µM (inactive)	> 100 µM (inactive)	> 100 µM (inactive)	> 100 µM (inactive)	> 100 µM (inactive)	> 100 µM (inactive)	> 100 µM (inactive)		> 100 µM (inactive)	> 100 µM (inactive)	> 100 µM (inactive)
CC[C@@H]1CC[C@@H]2[C@H](CC[C@]3(C)[C@@H](O)CC[C@@H]23)[C@H]1CO	39.3 µM (inactive)	> 100 µM (inactive)	> 100 µM (inactive)	> 100 µM (inactive)	> 100 µM (inactive)	70.5 µM (inactive)	67 µM (inactive)	> 100 µM (inactive)	44.6 µM (inactive)	> 100 µM (inactive)	51.1 µM (inactive)	> 100 µM (inactive)	50 µM (inactive)	> 100 µM (inactive)	> 100 µM (inactive)	> 100 µM (inactive)	95.7 µM (inactive)
O=P1(Cc2ccccc2)c2ccccc2-c2ccccc21	2.37 µM (inactive)	20.6 µM (inactive)	7.38 µM (inactive)	7.05 µM (inactive)	20.4 µM (inactive)	0.0658 µM (active)	0.65 µM (active)	7.94 µM (inactive)	1.87 µM (inactive)	6.47 µM (inactive)	1.41 µM (inactive)	1.86 µM (inactive)	7.29 µM (inactive)	3.86 µM (inactive)	6.04 µM (inactive)	7.85 µM (inactive)	2.86 µM (inactive)
CCNC(=O)c1cc(Cl)ccc1NC(=O)C12CC3CC(CC(C3)C1)C2	18 µM (inactive)	22.3 µM (inactive)	28.4 µM (inactive)	> 100 µM (inactive)	21.4 µM (inactive)	34.5 µM (inactive)	24.5 µM (inactive)	22.8 µM (inactive)	75.5 µM (inactive)	30.1 µM (inactive)	28.2 µM (inactive)	30.4 µM (inactive)	34.8 µM (inactive)	56.8 µM (inactive)	23.2 µM (inactive)	> 100 µM (inactive)	31.3 µM (inactive)
NCCCN(CCCN(C(=O)Nc1ccccc1)c1ccccc1)C(=O)Nc1ccccc1	29.8 µM (inactive)	20.8 µM (inactive)	36.8 µM (inactive)	32.7 µM (inactive)	58.7 µM (inactive)	28.2 µM (inactive)	27.7 µM (inactive)	33 µM (inactive)	20.2 µM (inactive)	25.1 µM (inactive)	34.9 µM (inactive)	22 µM (inactive)	52 µM (inactive)	27.2 µM (inactive)	59.2 µM (inactive)	87.1 µM (inactive)	18.6 µM (inactive)
CC1=NN(c2cccc(Cl)c2)C2(SCC(=O)N2c2nc3ccccc3s2)C1=CC=Cc1ccccc1 (stereo not drawn)	30.1 µM (inactive)	23.6 µM (inactive)	21.3 µM (inactive)	27.7 µM (inactive)	54.2 µM (inactive)	34.4 µM (inactive)	23 µM (inactive)	35.2 µM (inactive)	26.7 µM (inactive)	36.1 µM (inactive)	13.3 µM (inactive)	36.9 µM (inactive)	19.1 µM (inactive)	27 µM (inactive)	3.4 µM (inactive)	20.7 µM (inactive)	22.6 µM (inactive)
COc1cccc(-c2cc(O)c3cc(N4CCN(C)CC4)ccc3n2)c1	2.24 µM (inactive)	6.9 µM (inactive)	3.21 µM (inactive)	0.774 µM (active)	3.37 µM (inactive)	> 10 µM (inactive)	3.35 µM (inactive)	2.96 µM (inactive)	1.57 µM (inactive)	1.64 µM (inactive)	0.628 µM (active)	0.706 µM (active)	2.91 µM (inactive)	2.54 µM (inactive)	0.986 µM (active)	1.06 µM (active)	0.543 µM (active)
O=C(O)c1cccc2c1/C(=N/Nc1ccccc1)CC2	> 100 µM (inactive)	> 100 µM (inactive)	> 100 µM (inactive)	> 100 µM (inactive)	> 100 µM (inactive)	9.84 µM (inactive)	> 100 µM (inactive)	> 100 µM (inactive)	> 100 µM (inactive)	> 100 µM (inactive)	> 100 µM (inactive)	65.9 µM (inactive)	> 100 µM (inactive)	> 100 µM (inactive)	> 100 µM (inactive)	> 100 µM (inactive)	> 100 µM (inactive)
O=C(O)CCc1nc(-c2ccccc2)c(-c2ccccc2)o1 [OXAPROZIN]	> 100 µM (inactive)		> 100 µM (inactive)	> 100 µM (inactive)	> 100 µM (inactive)	74.5 µM (inactive)	74.8 µM (inactive)	> 100 µM (inactive)	> 100 µM (inactive)	> 100 µM (inactive)	> 100 µM (inactive)	> 100 µM (inactive)	84.1 µM (inactive)	> 100 µM (inactive)	> 100 µM (inactive)	> 100 µM (inactive)	> 100 µM (inactive)
